Experimental data reported in publication PMC12689647, “Evaluation of bromadiolone combined with ciprofloxacin, vitamin D, aspirin, and cinnamon as an apoptosis-mediated rodenticide strategy” (Scientific Reports, 2025).
Read-outs that look alike come from different tables or passages of the source.

Legend:
[1] = test system: p53; assay: Immunohistochemical detection of p53 in liver sections; assay type: in vivo, Rattus norvegicus; conditions: liver immunohistochemistry; oral, 21 days
Protocol: (§1) Adult male rats (n = 7 × 9 = 63), weighing 150–200 g, were randomized and divided into seven groups. Group I served as the control. Group II received the vehicle control (0.1 ml/100 g ethanol). Group III was treated with bromadiolone (B) at ½ LD₅₀ (0.8 mg/kg)[28]. Group IV received bromadiolone (0.8 mg/kg) + ciprofloxacin (Anti.20 mg/kg)[29]. Group V received bromadiolone (0.8 mg/kg) + ciprofloxacin (20 mg/kg) + vitamin D (Vit. D 35 mg/kg)[30]. Group VI received bromadiolone (0.8 mg/kg) + ciprofloxacin (20 mg/kg) + vitamin D (35 mg/kg) + cinnamon (Cin. 2 g/kg)[31]. Group VII received bromadiolone (0.8 mg/kg) + ciprofloxacin (20 mg/kg) + vitamin D (35 mg/kg) + aspirin (A. 150 mg/kg)[32]. All doses were administered orally to wild rats over 21 days. The chemical we used for the euthanizing process: rats were narcotized by Ketamine + xylazine injection (IP) and then sacrificed by slaughtering.
Using xylene, paraffin-embedded tissues were deparaffinized and then rehydrated through a graded series of ethanol solutions. Antigen retrieval was performed by boiling the slides in 1 mM EDTA. The sections were then incubated in 3% H2O2 for ten minutes, washed with wash buffer (1X PBS) for five minutes, and blocked for one hour at room temperature. A 1:1000 dilution of the p53 primary antibody was then applied. […]

[2] = test system: male wild rats of Rattus norvegicus; assay type: in vivo; conditions: oral
[3] = test system: p21; assay: Western blot of liver tissue, p21; assay type: in vivo, Rattus norvegicus; conditions: Western blot normalized to β-actin, oral, 21 days
Protocol: as §1
(§2) For the immunodetection and quantification of proteins such as p21 and cleaved caspase-3, markers of apoptotic cell death under various treatments, liver tissue was homogenized using RIPA lysis buffer. The samples were chopped and briefly sonicated on ice, and protein concentration was measured. Proteins (20 µg) were separated using SDS-PAGE and transferred to a nitrocellulose membrane. […] The optical densities of the bands were quantified and normalized to β-actin (1:5000) using ImageJ software.

[4] = test system: cleaved caspase-3; assay: Western blot of liver tissue, cleaved caspase-3; assay type: in vivo, Rattus norvegicus; conditions: Western blot normalized to β-actin, oral, 21 days
Protocol: as §1, §2

[5] = test system: liver cells; assay: Apoptosis estimation by acridine orange fluorescence staining; assay type: in vivo, Rattus norvegicus; conditions: AO staining, oral, 21 days
Protocol: as §1
Before staining with 0.01% acridine orange (AO) (stock solution: 0.1% AO in distilled water, diluted with phosphate buffer to a staining solution at pH 7.2), the sample was quickly passed through a graded alcohol series (80 − 50%) followed by distilled water. […] Acridine orange emits sharp green fluorescence when bound to DNA (apoptosis).

[6] = test system: liver DNA; assay type: in vivo, Rattus norvegicus; conditions: oral, 21 days
Protocol: as §1
For the coated slides, 100 µL of cell suspension was mixed with 600 µL of low-melting agarose (0.8% in PBS). The coated slides were immersed for 15 min in a lysis solution containing 2.5% sodium dodecyl sulfate (SDS) and 0.045 M Tris-borate-EDTA (TBE) buffer at pH 8.4. The slides were then placed in an electrophoresis chamber filled with TBE buffer without SDS. Electrophoresis was conducted at 100 mA for two minutes at 2 V/cm. Staining was performed at 4 °C using 20 µg/mL ethidium bromide (EtBr). EtBr-stained DNA was visualized using a fluorescent microscope with a 40× objective and an excitation filter of 420–490 nm to detect DNA damage. Qualitative and quantitative assessments of tail length, tail moment, olive tail moment, and percentage of DNA in the head were determined using OpenComet software to evaluate five images.

O=c1oc2ccccc2c(O)c1C(CC(O)c1ccc(-c2ccc(Br)cc2)cc1)c1ccccc1 (stereo not drawn) [Bromadiolone]
increase in p53 levels compared to the control [1]: 60.74%
p53 immunoreactivity in liver sections [1]: moderate brown immunoreactivity
Observed response % ([2]; time 5 days): 50%
Observed response % ([2]; time 6 days): 62.5%
Linear probit ([2]; time 6 days, probit fit): 5.4393
Linear response % ([2]; time 6 days, probit fit): 66.9788%
increase in p21 level compared to the control [3]: 96.65%
increase in cleaved caspase-3 level compared to the control [4]: 75.92%
decrease in normal cells compared to the control [5]: 18.66%
increase in apoptotic cells compared to the control [5]: 109.72%
degree of liver DNA damage by comet assay ([6]; liver comet assay photomicrographs): moderate amount of damaged DNA
increase in olive tail moment (OTM) compared to the control ([6]; liver comet assay): 710.02%
increase in tail DNA% (T.DNA%) compared to the control ([6]; liver comet assay): 222.35%
increase in tail length (TL) compared to the control ([6]; liver comet assay): 155.04%
increase in tail moment (TM) compared to the control ([6]; liver comet assay): 506.09%
